Columns and labels:
[1] = test system: SOD1 mice; assay: CatWalk gait analysis in SOD1 mice; type: in vivo, mouse; set-up: Hind stride length, Mean/average: unit not given beside the values
Text: Prior to onset, there was little to no difference between the transgenic and wildtype groups. Transgenic animals tended to rely more on front paws for movement as weakness and paralysis in the hind paws progressed. This began to show around timepoint P100, coinciding with the expected onset of disease. This impairment was seen through changes in front and hind paw step cycle, print area, mean intensity, and base of support.

[2] = test system: HSP70; assay: HSP70 levels in Neuro 2a cells, ELISA; type: cell-based, mouse; conditions: 48 hrs compound then 24 hrs GGTI-298
Method: Mouse neuroblastoma 2a cells were cultured in DMEM with 10% FBS for 24 hrs. […] After 24 hrs cells were harvested and lysates were prepared and analyzed by ELISA for HSP70. Compound ID numbers in table refer to structures in Table 1 and Table 2.

[3] = test system: Rap1; assay: Prenylation of Rap1 in Neuro2A cells, western blotting; type: cell-based, mouse; conditions: 100 nM; with GGTI-298; percentage of control (GGTI only)
Method: Mouse neuroblastoma Neuro2A cells were cultured in DMEM supplemented with 10% FBS for 24 hrs. The cells were treated with 102GGA derivative compounds for 24 hrs first before GGTase inhibitor GGTI-298 was added to the culture medium for additional 24 hr incubation. […] Both un-prenylated and total Rap1 protein bands were quantified using Image J and normalized to their respective loading control GAPDH. The results for control and each compound treatment were calculated as the ratio of normalized un-prenylated Rap1 to total Rap1, and averaged from two biological repeats of one experiment. The final results were presented as a percentage of the control treatments (GGTI only) from the same batch experiment. The data shown in the chart were averaged from two repeats of one experiment and presented as the ratio of normalized un-prenylated Rap1 to total Rapt Compound ID numbers in table refer to structures in Table 1 and Table 2.

[4] = test system: RhoA; assay: Active RhoA to total RhoA in Neuro2A cells (G-LISA, ELISA); type: cell-based, mouse; conditions: 48 hrs treatment, ratio of active RhoA to total RhoA as percentage of DMSO treatments, concentration not given
Method: Mouse neuroblastoma Neuro2A cells were cultured in DMEM supplemented with 10% FBS for 24 hrs. […] Cell lysates were quantified and subjected either to active RhoA assay using G-LISA RhoA activation Assay Biochem Kit (Cytoskeleton Inc), or to total RhoA assay using Total RhoA ELISA Kit (Cytoskeleton Inc). The results were calculated as ratio of active RhoA to total RhoA and averaged from 3 biological repeats of one experiment with background subtraction. The data was presented as percentage of DMSO treatments.

[5] = test system: Sprague Dawley rats; assay: Kainic acid stereotactic hippocampus injection model, fraction of cells damaged; type: in vivo, rat; conditions: 3 mg/kg oral; KA at 72 hours
Method: CNS-102 was administered orally to Sprague Dawley rats at 12 mg/kg. After dosing, KA was stereotactically injected into the hippocampus at 24, 48, 72, 96 and 168 hours to induce neuron damage. After 24 h, hippocampus tissue was collected, stained, and imaged. The scans were analyzed by Image J to calculate the fraction of cells having KA-induced damage. Average fraction damaged in the hippocampus from ten animals for each treatment (PBS vs. 12 mg/kg CNS-102) by time (24, 48, 72, 96 and 168 hours) combination was estimated with PROC MIXED in SAS. Comparisons of the CNS-102 treatment groups to the pooled PBS treatment at the different times can be made, giving the results tabulated below.
The fraction of cells damaged in the kainic acid model was determined on 130 rats, each receiving one dose of CNS-102 at either 0, 1, 3, 6, 12 or 24 mg/kg. PBS was used for dosing at 0 mg/kg. The linear model of the log10 percent damage versus concentration is graphically shown FIG. 5.
After dosing, KA was stereotactically injected into the hippocampus at 72 hours to induce neuron damage. After 24 h, hippocampus tissue was collected, stained, and imaged. The scans were analyzed by Image J to calculate the fraction of cells having KA-induced damage.
The indicated compounds or vehicle control were orally dosed to Sprague-Dawley rats, and Kainic acid was injected. After dosing, KA was stereotactically injected into the hippocampus at 72 hours to induce neuron damage. After 24 h, hippocampus tissue was collected, stained, and imaged. The scans were analyzed by Image J to calculate the fraction of cells having KA-induced damage. Neurons damaged by Kainic acid (mean of hippocampus CA3 neurons damaged) were quantified.

[6] = test system: Sprague-Dawley rats; assay: Kainic acid induced neurodegeneration and seizure behaviors in rats (Examples 20, 21); type: in vivo, rat; conditions: oral, Kainic acid
Text: Seizure behaviors were observed and scored (Ref. R. J. Racine, Modification of seizure activity by electrical stimulation: II. Motor seizure, Electroencephalogr. Clin. […] Modifications were made for the methods). Brain tissues of rats were sectioned on histology slides, and neurons in hippocampus tissues were stained by Nissl. Neurons in dentate gyrus tissues damaged by Kainic acid were quantified. The Memantine composition used in comparison refers to a commercially available NMDA receptor […]. […] Seizure behaviors were observed and scored (Ref. R. J. Racine, Modification of seizure activity by electrical stimulation: II. Motor seizure, Electroencephalogr. Clin. […] Modifications were made for the methods). Brain tissues of rats were sectioned on histology slides, and neurons in hippocampus tissues were stained by Nissl. Neurons damaged by Kainic acid and behavior scores were quantified.

SMILES	HSP70 level, ELISA signal (absence of compounds normalized as 1.00) ([2]; 100 nM)	unprenylated/total RAP1 (%) [3] [%]	% Relative RhoGTPase Activity [4] [%]	HSP70 level, ELISA signal (absence of compounds normalized as 1.00) ([2]; 10uM)	also measured
Nc1nc2ccc(OC(F)(F)F)cc2s1 [Riluzole, reference compound]	–	–	–	–	Run Duration, Mean/average ([1]; P-42, SOD1/Vehicle 1.484746201): 1.65; Hind stride length, Mean/average ([1]; P-42, SOD1/Vehicle 6.359471205): 6.337; Swing speed, Mean/average ([1]; P-42, SOD1/Vehicle 45.8515272): 43.07; Run Duration, Mean/average ([1]; P-124 (+/−) 3, SOD1/Vehicle 3.461605345): 3.113; Hind stride length, Mean/average ([1]; P-124 (+/−) 3, SOD1/Vehicle 3.607909383): 4.244; Swing speed, Mean/average ([1]; P-124 (+/−) 3, SOD1/Vehicle 23.93413455): 29.71
CCCCNC(=S)OC/C=C(\C)CC/C=C(\C)CC/C=C(\C)CCC=C(C)C [Compound 10e, O-((2E,6E,10E)-3,7,11,15-tetramethylhexadeca-2,6,10,14-tetraen-1-yl) butylcarbamothioate]	1.09	56	89.7	–	–
CC(C)=CCC/C(C)=C/CC/C(C)=C/CC/C(C)=C/c1nnc(-c2ccc(C)cc2)o1 [Compound 29b, 2-((1E,5E,9E)-2,6,10,14-tetramethylpentadeca-1,5,9,13-tetraen-1-yl)-5-(p-tolyl)-1,3,4-oxadiazole]	1.11	49	96.1	1.17	–
CCCCCNC(=O)OC/C=C(\C)CC/C=C(\C)CCC=C(C)C [Compound 8b, n-Pentyl 2E, 6E-farnesyl carbamate]	–	55	125.0	1.38	Mean of Hippocampus CA3 Neurons Damaged [5]: 20%
COc1ccc(NC(=O)OC/C=C(\C)CC/C=C(\C)CC/C=C(\C)CCC=C(C)C)c(OC)c1 [Compound 7w, 2′,4′-Dimethoxyphenyl 2E, 6E, 10E-geranylgeranyl carbamate]	1.14	77	94.4	–	–
CCOC(=O)C(C/C=C(\C)CC/C=C(\C)CC/C=C(\C)CC/C=C(\C)CCC=C(C)C)C(C)=O (stereo not shown) [Compound 135]	–	50	93.2	1.07	–
CC(C)=CCC/C(C)=C/CC/C(C)=C/CC/C(C)=C/COC(=O)Nc1ccc(C(F)(F)F)cc1 [Compound 7q, p-Trifluoromethylphenyl 2E, 6E, 10E-geranylgeranyl carbamate]	–	48	83.5	–	HSP70 level, ELISA signal (absence of compounds normalized as 1.00) ([2]; 10 nM): 1.01
CCOc1cc(OCC)cc(C(=O)OC/C=C(\C)CC/C=C(\C)CC/C=C(\C)CCC=C(C)C)c1 [Compound 2i, 2E, 6E, 10E-Geranylgeranyl-3′,5′-diethoxybenzoate]	1.08	92	105.0	–	–
CC12CC3CC(C)(C1)CC(N)(C3)C2 [Memantine, reference compound]	–	–	–	–	Hippocampus dentate gyrus neurons damaged ([6]; vehicle 20.9): 3.53 Arbitrary units; Seizure behaviors scores ([6]; vehicle 34): 36.2
CC(C)=CCC/C(C)=C/CC/C(C)=C/CC/C(C)=C/COC(=O)Nc1ccc2ccccc2c1 [Compound 7s, 2′-Naphthyl 2E, 6E, 10E-geranylgeranyl carbamate]	–	89	86.9	1.10	–

— patent publication US20150025077A1 (COYOTE PHARMACEUTICALS, INC., priority 2012, published 2015)
